Consider three compounds from patent US20020165197A1, “Modulation of GSK-3beta activity and its different uses” (priority 2001, published 2002).

The test system of test [1] is GSK-3β. Description: Western blot of GSK-3β (total and phosphorylated) in B16-F10 melanoma cell extracts. The class given is cell-based. Here is the method: (§1) Cells (B16-F10 melanoma cells) were maintained in RPMI medium supplemented with 10% […], 200 mM glutamine, 100 U/ml penicillin and 100 μg/ml streptomycin. They were transferred to a freshly prepared medium twice weekly. For all studies we used serum starved cells. FBS was omitted from the cultures for 18 hours and the experiment was carried out on monolayers of cells in RPMI medium supplemented with 1% FBS in a 37° C., 5% CO2 incubator.
(§2) To detect the level of expression of PKA, GSK-3β (total and phosphorylated), PKB/Akt (total and phosphorylated), β-catenin, c-myc and cyclin D1, protein extract from IB-MECA treated or untreated serum-starved B16-F10 melanoma cells were utilized. […] Further, to mimic the chain of events occurring upon activation of A2R, cells were incubated with 8Br cAMP.
(§3) At the end of the incubation period, cells were rinsed with ice-cold PBS and lysed in ice-cold lysis buffer (TNN buffer, 50 mM tis buffer pH=7.5, 150 mM NaCl, NP 40). Cell debris was removed by centrifugation at 7500×g for 10 min. Supernatant was utilized for Western Blot analysis. Protein concentrations were determined using the Bio-Rad protein assay dye reagent. […] Bands were recorded using BCIP/NBT color development kit (Promega, Madison, Wis., USA). […]

Test [2] relates to hair growth. Kind of test: Hair growth in nude mice inoculated with HCT-116 colon carcinoma cells. The settings on record: 6 μg/kg body weight orally daily, 30 days. The class given is in vivo, Nude mice (BalbC origin). As to the method: Nude mice (BalbC origin) were subcutaneously inoculated with HCT16 human colon carcinoma cells, which thus developed a visible tumor.
Cl-IB-MECA was dissolved in DMSO and kept as a stock solution. in a concentration of 10 mM. Before administration to the mice, the stock solution was diluted with PBS to a concentration so that each mice received a dosage of 6 μg/kg body weight.
Nude mice (BalbC origin) were subcutaneously inoculated wit HCT-16 human colon carcinoma cells. These mice were divided into two groups:
Study group which was daily and orally administered with Cl-IB-MECA (6 μg/kg body weight) dissolved in DMSO and diluted with PBS.
Control group which was daily and orally administered with DMSO only.

Test [3] deals with HIV-1 SF126. Kind of test: p24 ELISA, HIV replication in SF infected microglia. The class given is cell-based. Here is the method:
Purified primary human fetal astrocytes and microgial cells were prepared from 16 to 20 week old human fetal brain tissue by a modified procedure based on the methods of Cole and de Vellis [R. Cole and J. de Vellis. In: Protocols for neural cell cure. S. Fedoroff and A. Richardson (Eds.) Human Press, Totowa, N.J., pp. is 117-130. (1997)], and Yong and Antel [V. W. Yong and J. P. Antel. In: Protocols for neural cell culture. S. Fedoroff and A. Richardson (Eds.) Humana Press, Totowa, N.J., pp. 157-172 (1997)]. Brain tissue was washed in ice-cold Hank's Balanced Salt Solution (HBSS) containing the antibiotics gentamycin and arnphotericin B. Blood vessels and meninges were removed and the tissue was minced into small pieces. After mincing, the tissue was enzymatically dissociated by incubation in 0.05% trypsin and mechanically disrupted by passing several times over a 75 μm nylon mesh filter. The resulting single cell suspension was washed, pelleted and plated at a density of 2-10×10^6 cells per 162 cm^2 flask in DMEM:F12 containing 10% fetal calf […], gentamycin, and L-glutamine. After 7-10 days of growth, microglial cells were isolated by placement on rotary shaker at 200 rpm in a 37° C. incubator overnight. The non-adherent cells were removed and allowed to attach to a new flask for 1 to 3 h. Following attachment, the cells were washed and refed with media containing 10% fetal calf serum, insulin, gentamycin, L-gluntamine, and N1 supplement. Astocyes were subeultured from adherent cells in media containing 15% fetal calf serum, insulin, gentamycin, and L-glutamine and contaminating microglia were removed by repeated rotary shaking. Cultured astrocytic and nicroglial cells were plated at a density of 2.5×10^5 per well into 6 well plates for subseqent infection.
Brain derived primary HIV-1 isolates SF162 and JR-FL were cultured in human peripheral blood mononuclear cells (PBMC) essentially as described by Gartner and Popovic^12. PBMC were isolated from human buffy coat by ficoll gradient and plated at a density of 2.5×10^6 per ml in RPMI containing 10% fetal calf serum and gentamycin. Cells were stimulated by the addition of 5 μg/ml of phytohemagglutinin (PHA) for 48 h. After stimulation, cells were infected with either SF162 or JR-FL and cultured for 7 to 10 days until high titres of MIV-1 were detected in the supernatant by p24 ELISA assay. When viral production was optimal, the cells were pelleted, the supernatant containing HIV-1 was aliquoted and stored at −70° C. until use. P24 ELISA assay was performed on an aliquot of stock to determine the viral titre.
Microglial or astrocytic cells (2.5×10^5) were plated per well into 6-well plates. The next day, cells were washed and refed with fresh medium. […]
In general terms: An ELISA detects its analyte on a solid surface through an enzyme-linked reagent.

For test [4], the system named is β-catenin. Kind of test: Western blot of tumor tissue from HCT-116 colon carcinoma bearing mice: β-catenin. The class given is in vivo, Balb/C nude mice. The note with it: 6 μg/Kg orally every second day, 30 days. As to the method: (§4) A similar series of studies was utilized in a colon carcinoma murine animal model to determine whether elements of the Wnt pathway altered by IB-MECA in vitro, occur as well in viro with Cl-B-MECA (another A3RAg). The animal model was generated by subcutaneous injection of 1.2×10^6HCT-116 human colon carcinoma cells to the flank of Balb/C nude mice. The mice were treated orally (by gavage), every second day with 6 μg/Kg Cl-IB-MECA.
(§5) After 30 days the mice were sacrificed and tissue samples from the colon carcinoma foci were harvested and analyzed for the expression of β-catenin and cyclin D1.

Test [5] concerns cyclin D1. Kind of test: Western blot of tumor tissue from HCT-116 colon carcinoma bearing mice: cyclin D1. The class given is in vivo, Balb/C nude mice. The note with it: 6 μg/Kg orally every second day, 30 days. As to the method:
as §4, §5
(In general: Immunoblotting shows a protein as a band on a membrane.)

Test [6] has as its system HIV-1 JR-FL. Description: p24 ELISA, HIV replication in JR-FL infected astroglial cells. The class given is cell-based. The note with it: Astroglia/JR-FL, 0.01 (μM, every 24 hours); HIV control 22.83. As to the method: (§6) Purified primary human fetal astrocytes and microgial cells were prepared from 16 to 20 week old human fetal brain tissue by a modified procedure based on the methods of Cole and de Vellis [R. Cole and J. de Vellis. In: Protocols for neural cell cure. S. Fedoroff and A. Richardson (Eds.) Human Press, Totowa, N.J., pp. is 117-130. (1997)], and Yong and Antel [V. W. Yong and J. P. Antel. In: Protocols for neural cell culture. S. Fedoroff and A. Richardson (Eds.) Humana Press, Totowa, N.J., pp. 157-172 (1997)]. Brain tissue was washed in ice-cold Hank's Balanced Salt Solution (HBSS) containing the antibiotics gentamycin and arnphotericin B. Blood vessels and meninges were removed and the tissue was minced into small pieces. After mincing, the tissue was enzymatically dissociated by incubation in 0.05% trypsin and mechanically disrupted by passing several times over a 75 μm nylon mesh filter. […]
(§7) Brain derived primary HIV-1 isolates SF162 and JR-FL were cultured in human peripheral blood mononuclear cells (PBMC) essentially as described by Gartner and Popovic^12. […] After stimulation, cells were infected with either SF162 or JR-FL and cultured for 7 to 10 days until high titres of MIV-1 were detected in the supernatant by p24 ELISA assay. […]

The test system of test [7] is c-myc. Description: Western blot of tumor tissue from HCT-116 colon carcinoma bearing mice: c-myc. The class given is in vivo, Balb/C nude mice. The note with it: 6 μg/Kg orally every second day, 30 days.
For test [8], the system named is HIV-1 SF162. Description: p24 ELISA, HIV replication in SF162 infected astroglia. The note with it: Astroglia/SF-162, 0.01 (μM); HIV control 313.38. The class given is cell-based. Here is the method: as §6, §7
Test [9] relates to B16-F10 melanoma cells. Description: [3H]-thymidine incorporation cell proliferation assay. The class given is cell-based. The settings on record: antagonist 0.01 μM added in the presence of IB-MECA. Here is the method: as §1
[^3H]-thymidine incorporation assay as used to evaluate cell growth. B136-F10 melanom Cella (1.5×10^4/ml) were incubated with IB-MECA (0.0 μM-10 μM) in 96-well microtiter plates for 24 hours. To test whether IB-MECA exerted its effect on tumor cells through binding to A3AR, an antagonist to A3AR, MRS-1523, was added to the cell cultures in the presence of IB-MECA. Cultures of B16-F10 melanoma cells tat were incubated in the presence of MRS-1523 only, served as controls. For the last 6 h of incubation, each well was pulsed with 1 μCi [3H]-thymidine. Cells were harvested and the [^3H]-thyine uptake was determined in an LKB liquid scintillation counter (LKB, Piscataway, N.J., USA). These experiments were repeated at least 10 times.
In general terms: Incorporation of labelled thymidine or its analogues reports DNA synthesis.

Test [10] concerns PKAc. Description: Western blot of PKAc in B16-F10 melanoma cell extracts. The class given is cell-based. The settings on record: antagonist 0.01 μM with IB-MECA. As to the method:
as §1, §2, §3

As to `Nc1ncnc2c1nc(Br)n2[C@@H]1O[C@@H]2COP(=O)(O)O[C@H]2[C@H]1O` [8Br cAMP], in test [1] (8Br cAMP added to culture to mimic A2AR activation), the “level of GSK-3β” value is “decrease”.

On to `CNC(=O)C1OC(n2cnc3c(NCc4cccc(I)c4)nc(Cl)nc32)C(O)C1O` (centres unmarked) [Cl-IB-MECA], for which the “hair growth on the skin” value in test [2] is listed as “hair grew”. Further, the “p 24 Day 10 after infection” value in test [3] (0.01, HIV control 209.18) was found to be 111.05 pg/mL; in test [3] (0.1, HIV control 209.18), 80.37 pg/mL. Besides, the “p 24 Day 5 after infection” value in test [3] (0.01, HIV control 267.99) was found to be 127.03 pg/mL; in test [3] (0.1, HIV control 267.99), 10.81 pg/mL. In addition, in test [4], the “level of β-catenin in tumor tissue” value was “decrease”. Moreover, in test [5], the “level of cyclin D1 in tumor tissue” value is listed as “decrease”. The “p 24 Day 5” value in [6] was found to be 8.45 pg/mL; in test [8], 288.77 pg/mL. For the same compound, the “level of c-myc in tumor tissue” value in test [7] is “decrease”.

As to `CCCOC(=O)c1c(-c2ccccc2)nc(CC)c(C(=O)SCC)c1CCC` [MRS-1523], the “effect on the inhibitory effect of IB-MECA on melanoma cell growth” value in test [9] is “reversed the inhibitory effect of IB-MECA”. Also, the “effect on the IB-MECA induced increase in GSK-3β levels” value in test [1] (antagonist 0.01 μM with IB-MECA) is recorded as “reversed”. In addition, in test [10], the “effect on the IB-MECA induced decrease in PKAc” value is “reversed”.
